From US20080085893A1, “MATRIX METALLOPROTEASE INHIBITORS” (priority 2006, published 2008)
Several values for one entry are separate records, joined by “and”; a condition that tells them apart may be missing. Identical values can stand only once. Like-named read-outs stand apart in the source and are kept apart here.

What was measured:
Type in all cases: biochemical
[1] = biological target: T1, human MMP-1 (amino acids 100-262) (Homo sapiens, UniProt P03956); experiment: MMP dose response assay for determining IC50, MMP-1; conditions: recombinant catalytic domain, fluorescent-quench substrate 100 nM
T1 construct: human MMP-1 (amino acids 100-262); made in house
T1 sequence (P03956 100-262): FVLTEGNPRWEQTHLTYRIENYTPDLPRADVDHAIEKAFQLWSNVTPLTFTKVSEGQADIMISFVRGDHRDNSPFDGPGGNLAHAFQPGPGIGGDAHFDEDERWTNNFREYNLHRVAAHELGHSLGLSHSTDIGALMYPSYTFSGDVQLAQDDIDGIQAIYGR
Procedure: (§1) MMP Dose Response Assay for Determining IC50
(§2) The following method was used for determining IC50 values of different inhibitor compounds against multiple MMP enzymes. Frozen stocks of recombinantly produced MMPs were prepared in assay buffer (50 mM HEPES pH 7.4, 10 mM CaCl2, 0.05% Brij-35). […] Enzyme concentrations in the assay were determined empirically and set such that proteolytic activity was maintained in a linear range over the time-course of the experiment. […] Each concentration for each test compound was tested in triplicate. MMP enzymes were equilibrated with compounds for 1 hour at room temperature, then a fluorescent-quench substrate (Acetyl-Cys(Eu)-Pro-Leu-Gly-Leu-Lys-(QSY7)-Ala-Arg-amide) was added to a final concentration of 100 nM. […] Data was analyzed by first calculating average background value from wells that contained only substrate, and this value was subtracted from the entire plate. The 100%, or maximum value, was determined by averaging control wells that contained enzyme, substrate and DMSO. For each well, the percent of control was calculated by dividing the well value by the average DMSO value obtained above.

[2] = biological target: T2, human MMP-2 (amino acids 1-660) (Homo sapiens, UniProt P08253); experiment: MMP dose response assay for determining IC50, MMP-2; conditions: recombinant enzyme, fluorescent-quench substrate 100 nM; read-out: MMP-2
T2 construct: human MMP-2 (amino acids 1-660); made in house
T2 sequence (P08253 110-660): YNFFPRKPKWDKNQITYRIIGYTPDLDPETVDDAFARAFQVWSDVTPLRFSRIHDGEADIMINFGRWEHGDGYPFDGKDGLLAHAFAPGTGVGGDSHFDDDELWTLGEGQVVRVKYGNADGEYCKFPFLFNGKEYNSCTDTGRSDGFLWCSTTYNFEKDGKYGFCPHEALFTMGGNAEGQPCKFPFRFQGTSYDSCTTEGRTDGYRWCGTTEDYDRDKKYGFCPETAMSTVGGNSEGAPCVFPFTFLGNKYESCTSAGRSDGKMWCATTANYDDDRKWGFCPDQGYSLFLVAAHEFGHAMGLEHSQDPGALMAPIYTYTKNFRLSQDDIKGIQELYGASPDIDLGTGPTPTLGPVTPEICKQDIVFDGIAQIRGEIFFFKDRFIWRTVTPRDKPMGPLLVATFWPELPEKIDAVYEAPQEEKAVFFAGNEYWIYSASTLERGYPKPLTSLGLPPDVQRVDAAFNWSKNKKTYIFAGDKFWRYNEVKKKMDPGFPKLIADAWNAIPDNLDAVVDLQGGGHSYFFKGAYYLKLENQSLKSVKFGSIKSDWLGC
Procedure: as §1, §2

[3] = biological target: T3, human MMP-9 (amino acids 107-446) (Homo sapiens, UniProt P14780); experiment: MMP dose response assay for determining IC50, MMP-9
T3 construct: human MMP-9 (amino acids 107-446); made in house
Procedure: as §1, §2

[4] = recombinant enzyme, fluorescent-quench substrate 100 nM, read-out: MMP-9

T3 sequence (P14780 107-446): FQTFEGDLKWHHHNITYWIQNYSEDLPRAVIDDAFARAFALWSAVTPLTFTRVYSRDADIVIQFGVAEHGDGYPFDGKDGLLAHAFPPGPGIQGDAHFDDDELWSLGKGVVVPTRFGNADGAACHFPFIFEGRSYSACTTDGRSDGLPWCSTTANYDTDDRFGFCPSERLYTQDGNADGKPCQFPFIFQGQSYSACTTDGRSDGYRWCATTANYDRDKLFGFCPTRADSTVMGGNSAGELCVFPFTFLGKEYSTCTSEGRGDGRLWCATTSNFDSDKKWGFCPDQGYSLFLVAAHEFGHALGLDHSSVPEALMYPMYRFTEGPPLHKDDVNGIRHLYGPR

Row | SMILES | IC50 [1] | IC50 [2] | IC50 [3, 4] | IC50 ([3]; MMP-9 (nM))
1 | CS(=O)(=O)N(C[C@H](O)C(=O)NO)c1ccc(Oc2ccc(Cl)cc2)cc1 [Compound 1, N-Hydroxy (2S)-2-hydroxy-3-{N-[4-(4-chlorophenoxy)phenyl], N-methanesulfonylamino}propionamide] | > 10000 nM | 39.5 nM and 30.3 nM | 5.04 nM and 4.35 nM | 
2 | CO[C@@H](CN(c1ccc(Oc2ccc(C)cc2)cc1)S(C)(=O)=O)C(=O)NO [Compound 2, N-Hydroxy (2S)-2-methoxy-3-{N-[4-(4-methylphenoxy)phenyl], N-methanesulfonylamino}propionamide] | > 10000 nM | 43.6 nM and 28.8 nM | 4.15 nM | 3.73 nM
3 | Cc1ccc(Oc2ccc(N(C[C@H](NC(=O)C(C)C)C(=O)NO)S(C)(=O)=O)cc2)cc1 [Example 4, N-Hydroxy (2S)-3-{N-[4-(4-methylphenoxy)phenyl],N-methanesulfonylamino}-2-(2-propylcarbonylamino)propionamide] | > 10000 nM | 53 nM and 86.7 nM | 4.89 nM and 6 nM | 
4 | Cc1ccc(Oc2ccc(N(CC(C)(O)C(=O)NO)S(C)(=O)=O)cc2)cc1 (centres unmarked) [Example 6, N-Hydroxy 2-hydroxy-2-methyl-3-{N-[4-(4-methylphenoxy)phenyl],N-methanesulfonylamino}propionamide] | 5570 nM | 19.1 nM and 22.6 nM and 29.7 nM and 16.6 nM and 18.9 nM and 14.5 nM | 7.4 nM and 7.76 nM and 7.44 nM and 4.82 nM and 2.17 nM and 3.57 nM | 
5 | CS(=O)(=O)N(C[C@@H](O)C(=O)NO)c1ccc(Oc2ccccc2)cc1 [Example 11, N-Hydroxy (2R)-2-hydroxy-3-[N-(4-phenoxy)phenyl,N-methanesulfonylamino]propionamide] | > 10000 nM | 472 nM | 106 nM | 
6 | CS(=O)(=O)N(C[C@H](O)C(=O)NO)c1ccc(Oc2ccccc2)cc1 [Example 12, N-Hydroxy (2S)-2-hydroxy-3-[N-(4-phenoxy)phenyl,N-methanesulfonylamino]propionamide] | > 10000 nM | 306 nM and 189 nM | 49.7 nM and 29.2 nM | 
7 | Cc1ccc(Oc2ccc(N(C[C@H](O)C(=O)NO)S(=O)(=O)C(C)C)cc2)cc1 [Example 16, N-Hydroxy (2S)-2-hydroxy-3-{N-[4-(4-methylphenoxy)phenyl],N-(2-propyl)sulfonylamino}propionamide] | > 10000 nM |  | 286 nM | 
8 | Cc1ccc(Oc2ccc(N(C[C@H](O)C(=O)NO)S(=O)(=O)N(C)C)cc2)cc1 [Example 19, N-Hydroxy (2S)-2-hydroxy-3-{N-[4-(4-methylphenoxy)phenyl],N-(dimethylamino)sulfonylamino}propionamide] | > 10000 nM |  | 243 nM | 
9 | Cc1ccc(Oc2ccc(N(C[C@H](O)C(=O)NO)S(=O)(=O)c3ccccc3)cc2)cc1 [Example 21, N-Hydroxy (2S)-2-hydroxy-3-{N-[4-(4-methylphenoxy)phenyl],N-phenylsulfonylamino}propionamide] | > 10000 nM |  | 344 nM | 
10 | Cc1ccc(Oc2ccc(N(C[C@H](Nc3ccccc3)C(=O)NO)S(C)(=O)=O)cc2)cc1 [Example 30, N-Hydroxy (2S)-3-{N-[4-(4-methylphenoxy)phenyl],N-methanesulfonylamino}-2-phenylaminopropionamide] | > 10000 nM and 6220 nM and 8730 nM and 7280 nM and 7460 nM | 18.6 nM and 15.4 nM and 15.3 nM and 5.27 nM and 9.5 nM and 9.9 nM and 7.96 nM |  | 
11 | Cc1ccc(C#Cc2ccc(N(C[C@H](O)C(=O)NO)S(C)(=O)=O)cc2)cc1 [Example 63, N-Hydroxy (2S)-2-hydroxy-3-{N-[4-(4-methylphenylacetylene)phenyl],N-methanesulfonylamino}propionamide] | > 10000 nM | 28.2 nM and 65.9 nM |  | 
12 | CS(=O)(=O)N(C[C@@H](C(=O)NO)N1CCc2ccccc2C1)c1ccc(Oc2ccc(C(F)(F)F)cc2)cc1 [Example 73, N-Hydroxy (2S)-2-(1,2,3,4-tetrahydroisoquinolin-2-yl)-3-{N-[4-(4-trifluoromethylphenoxy)phenyl],N-methanesulfonylamino}propionamide] | > 10000 nM |  |  | 
13 | CN1CCN([C@@H](CN(c2ccc(Oc3ccc(Cl)cc3)cc2)S(C)(=O)=O)C(=O)NO)CC1 [Example 92, N-Hydroxy (2S)-3-{N-[4-(4-chlorophenoxy)phenyl],N-methanesulfonylamino}-2-(4-methylpiperazin-1-yl)propionamide] |  | 6.5 nM | 2.39 nM | 
14 | CS(=O)(=O)N(C[C@H](NC(=O)C1CCOCC1)C(=O)NO)c1ccc(Oc2ccc(C(F)(F)F)cc2)cc1 [Example 93, N-Hydroxy (2S)-2-[(tetrahydropyran-4-yl)carbonylamino]-3-{N-[4-(4-trifluoromethylphenoxy)phenyl],N-methanesulfonylamino}propionamide] |  | 836 nM | 54.1 nM | 
15 | CC(C)CC#Cc1ccc(N(C[C@@H](C(=O)NO)N2CCOCC2)S(C)(=O)=O)cc1 [Example 94, N-Hydroxy (2S)-3-{N-[4-(4-methylpentyn-1-yl)phenyl],N-methanesulfonylamino}-2-(morpholin-4-yl)propionamide] |  | 106 nM | 113 nM | 
16 | C[C@@H]1CN([C@@H](CN(c2ccc(Oc3ccc(Cl)cc3)cc2)S(C)(=O)=O)C(=O)NO)C[C@H](C)O1 [Example 95, N-Hydroxy (2S)-3-{N-[4-(4-chlorophenoxy)phenyl],N-methanesulfonylamino}-2-(cis-2,6-dimethylmorpholin-4-yl)propionamide] |  | 2.54 nM and 3.69 nM and 1.28 nM | 0.57 nM and 0.64 nM and 0.17 nM | 
17 | CS(=O)(=O)N(C[C@@H](C(=O)NO)N1CCCCC1)c1ccc(Oc2ccc(C(F)(F)F)cc2)cc1 [Example 96, N-Hydroxy (2S)-2-(piperidin-1-yl)-3-{N-[4-(4-trifluoromethylphenoxy)phenyl],N-methanesulfonylamino}propionamide] |  | 7.55 nM | 2.34 nM | 
18 | CN(O)C(=O)[C@H](CN(c1ccc(Oc2ccc(C(F)(F)F)cc2)cc1)S(C)(=O)=O)N1CCOCC1 [Example 98, N-Hydroxy,N-methyl (2S)-2-(morpholin-4-yl)-3-{N-[4-(4-trifluoromethylphenoxy)phenyl],N-methanesulfonylamino}propionamide] |  | 447 nM | 159 nM | 
19 | CC(C)O[C@@H](CN(c1ccc(Oc2ccc(C(F)(F)F)cc2)cc1)S(C)(=O)=O)C(=O)NO [Example 99, N-Hydroxy (2S)-2-(2-propoxy)-3-{N-[4-(4-trifluoromethylphenoxy)phenyl],N-methanesulfonylamino}propionamide] |  | 50.3 nM | 8.18 nM | 
20 | Cc1ccc(Oc2ccc(N(C[C@@H](C(=O)NO)N3C[C@@H](C)O[C@@H](C)C3)S(C)(=O)=O)cc2)cc1 [Example 100, N-Hydroxy (2S)-2-(cis-2,6-dimethylmorpholin-4-yl)-3-{N-[4-(4-methylphenoxy)phenyl],N-methanesulfonylamino}propionamide] |  | 2.83 nM | 0.68 nM | 
21 | CS(=O)(=O)N(C[C@H](O)C(=O)N(O)CCN1CCOCC1)c1ccc(Oc2ccc(Cl)cc2)cc1 [Example 101, N-Hydroxy,N-[2-(morpholin-4-yl)ethyl](2S)-2-hydroxy-3-{N-[4-(4-chlorophenoxy)phenyl],N-methanesulfonylamino}propionamide] |  | 1400 nM | 206 nM | 
22 | C=CCN(O)C(=O)[C@H](CN(c1ccc(Oc2ccc(C)cc2)cc1)S(C)(=O)=O)N1C[C@@H](C)O[C@@H](C)C1 [Example 102, N-(3-Allyl),N-hydroxy (2S)-2-(cis-2,6-dimethylmorpholin-4-yl)-3-{N-[4-(4-methylphenoxy)phenyl],N-methanesulfonylamino}propionamide] |  | 23 nM and 24.8 nM | 6.53 nM and 6.01 nM | 
